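A five-concentration, 48-hour dose response in 96-well plates underlies each endpoint, interpolated linearly between surrounding concentrations. GI50 = concentration required for 50% inhibition of growth.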 The source made the active and inactive calls. Rule as the data show it: active = GI50 up to about 1.1 µM and inactive = higher.
Tests used:
Experiment in all cases: NCI anticancer screen, dose series, 48 h
OVCAR-8 = tested on: OVCAR-8
SNB-78 = tested on: SNB-78
SW-620 = tested on: SW-620
M14 = tested on: M14
HT-29 = tested on: HT-29
U-251 = tested on: U-251
SNB-75 = tested on: SNB-75
LXFL 529 = tested on: LXFL 529
SF-295 = tested on: SF-295
K562 = tested on: K562
UACC-62 = tested on: UACC-62
HOP-18 = tested on: HOP-18
786-0 = tested on: 786-0
SK-MEL-2 = tested on: SK-MEL-2
SK-MEL-5 = tested on: SK-MEL-5
SF-268 = tested on: SF-268

Compound | GI50 (OVCAR-8) | GI50 (SNB-78) | GI50 (SW-620) | GI50 (M14) | GI50 (HT-29) | GI50 (U-251) | GI50 (SNB-75) | GI50 (LXFL 529) | GI50 (SF-295) | GI50 (K562) | GI50 (UACC-62) | GI50 (HOP-18) | GI50 (786-0) | GI50 (SK-MEL-2) | GI50 (SK-MEL-5) | GI50 (SF-268)
Cc1cccc(C)c1N1C(=O)C(=O)C(c2nc3ccccc3s2)/C(=N/c2cccc3c(=O)[nH][nH]c(=O)c23)C1=O (stereo not drawn) | > 100 µM (inactive) | > 100 µM (inactive) | > 100 µM (inactive) | > 100 µM (inactive) | > 100 µM (inactive) | 83 µM (inactive) | 81.8 µM (inactive) | > 100 µM (inactive) | > 100 µM (inactive) | 98.4 µM (inactive) | > 100 µM (inactive) | > 100 µM (inactive) | > 100 µM (inactive) | > 100 µM (inactive) | > 100 µM (inactive) | > 100 µM (inactive)
CCc1cc(Cc2cc(CC)c(NC(=O)C(=O)Cc3ccccn3)c(CC)c2Cl)c(Cl)c(CC)c1NC(=O)C(=O)Cc1ccccn1 | > 100 µM (inactive) | > 100 µM (inactive) | 15.7 µM (inactive) | 75.2 µM (inactive) | 70 µM (inactive) | 19.4 µM (inactive) | > 100 µM (inactive) | 53 µM (inactive) | > 100 µM (inactive) | > 100 µM (inactive) | > 100 µM (inactive) | > 100 µM (inactive) | > 100 µM (inactive) | > 100 µM (inactive) | > 100 µM (inactive) | > 100 µM (inactive)
Fc1ccc(C2SCc3nc4ccccc4n32)cc1 (stereo not drawn) | 49 µM (inactive) | 13.8 µM (inactive) | 74.6 µM (inactive) | 43.3 µM (inactive) | 47.9 µM (inactive) | 51.3 µM (inactive) | 3.1 µM (inactive) | 34.4 µM (inactive) | 40.7 µM (inactive) | 31.3 µM (inactive) | > 10 µM (inactive) | < 0.01 µM (active) | 42.9 µM (inactive) | 39.6 µM (inactive) | 15.8 µM (inactive) | 54.3 µM (inactive)

Reference: ChEMBL document CHEMBL1201862, “PubChem BioAssay data set” (2004)
